Source: paper PMC4363471, “Crystal Structure of Helicobacter pylori Pseudaminic Acid Biosynthesis N-Acetyltransferase PseH: Implications for Substrate Specificity and Catalysis” (PLoS ONE, 2015)

Molecular target: T1, PseH (Helicobacter pylori, UniProt O25094)
T1 construct: recombinant; 21 kDa; homodimer
Test: X-ray crystal structure ([…] Å, co-crystallization)
Format: binding
Conditions: co-crystallized with 5 mM AcCoA; cofactor site between strands β4 and β5

T1 sequence (O25094 whole entry): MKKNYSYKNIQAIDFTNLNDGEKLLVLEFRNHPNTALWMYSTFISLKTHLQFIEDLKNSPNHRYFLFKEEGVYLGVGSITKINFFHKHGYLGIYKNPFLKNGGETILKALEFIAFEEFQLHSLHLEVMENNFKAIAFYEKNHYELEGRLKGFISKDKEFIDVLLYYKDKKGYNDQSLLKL

## CC(=O)SCCNC(=O)CCNC(=O)[C@H](O)C(C)(C)COP(=O)(O)OP(=O)(O)OC[C@H]1O[C@@H](n2cnc3c(N)ncnc32)[C@H](O)[C@@H]1OP(=O)(O)O [AcCoA]
  X-ray crystal structure (2.3 Å, co-crystallization): Analysis of the difference Fourier map revealed an AcCoA binding site between the splayed strands
